Source: US9226916B2, “Pyrrolidine derivatives” (HOFFMANN-LA ROCHE INC., priority 2009, dated 2016)
Where two headings read alike, the source gives them in different places.

Biological target: T1, recombinant human NK3 receptor (Homo sapiens, UniProt P29371)
T1 construct: expressed in transfected cells; host or cells: HEK293 cells, transient expression; membranes
T1 sequence (P29371 1-465): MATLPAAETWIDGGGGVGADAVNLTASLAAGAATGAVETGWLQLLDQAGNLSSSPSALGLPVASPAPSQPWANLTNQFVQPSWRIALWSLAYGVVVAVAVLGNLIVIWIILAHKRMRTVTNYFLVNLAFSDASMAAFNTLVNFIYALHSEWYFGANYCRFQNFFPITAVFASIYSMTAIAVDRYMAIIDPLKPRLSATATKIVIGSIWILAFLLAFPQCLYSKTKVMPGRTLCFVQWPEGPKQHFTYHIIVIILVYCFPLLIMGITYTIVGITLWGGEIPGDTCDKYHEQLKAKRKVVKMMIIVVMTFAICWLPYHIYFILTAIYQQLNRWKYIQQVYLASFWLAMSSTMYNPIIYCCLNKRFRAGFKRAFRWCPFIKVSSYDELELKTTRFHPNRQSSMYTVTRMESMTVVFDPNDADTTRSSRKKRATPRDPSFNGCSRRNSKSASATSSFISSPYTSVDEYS
Assay: [3H]SR142801 competition binding assay

Row | Ki (hNK-3 receptor affinity, membranes from HEK293 cells transiently expressing recombinant human NK3 receptor, [3H]SR142801, Cheng-Prussoff, read-out: Data Ki) | SMILES | Ki
1 | – | CN(C(=O)Oc1ccc(F)cc1)[C@H]1CN(C(=O)[C@H]2CC[C@H](O)CC2)C[C@@H]1c1ccc(Cl)c(Cl)c1 (racemic) [Example 37, rac-[(3R,4S)-4-(3,4-Dichloro-phenyl)-1-(trans-4-hydroxy-cyclohexanecarbonyl)-pyrrolidin-3-yl]-methyl-carbamic acid 4-fluoro-phenyl ester] | 0.7 nM
2 | – | CN(C(=O)Oc1ccc(F)cc1)[C@H]1CN(C(=O)C2CCN(C(=O)C3(C)CC3)CC2)C[C@H]1c1ccc(Cl)c(Cl)c1 (racemic) [Example 40, rac-{(3R,4R)-4-(3,4-Dichloro-phenyl)-1-[1-(1-methyl-cyclopropanecarbonyl)-piperidine-4-carbonyl]-pyrrolidin-3-yl}-methyl-carbamic acid 4-fluoro-phenyl ester] | 4.2 nM
3 | – | CC1(C(=O)N2CCC(C(=O)N3C[C@H](NC(=O)Oc4ccc(F)cc4)[C@@H](c4ccc(Cl)c(Cl)c4)C3)CC2)CC1 (racemic) [Example 43, rac-{(3R,4S)-4-(3,4-Dichloro-phenyl)-1-[1-(1-methyl-cyclopropanecarbonyl)-piperidine-4-carbonyl]-pyrrolidin-3-yl}-carbamic acid 4-fluoro-phenyl ester] | 3.4 nM
4 | – | CN(C(=O)Oc1ccc(F)cc1)[C@H]1CN(C(=O)C2CCOCC2)C[C@@H]1c1ccc(Cl)c(Cl)c1 (racemic) [Example 44, rac-[(3R,4S)-4-(3,4-Dichloro-phenyl)-1-(tetrahydro-pyran-4-carbonyl)-pyrrolidin-3-yl]-methyl-carbamic acid 4-fluoro-phenyl ester] | 2.9 nM
5 | – | CN(C(=O)Oc1ccc(F)cc1)[C@H]1CN(C(=O)[C@H]2CC[C@@H](O)CC2)C[C@@H]1c1ccc(Cl)c(Cl)c1 (racemic) [Example 47, rac-[(3R,4S)-4-(3,4-Dichloro-phenyl)-1-(cis-4-hydroxy-cyclohexanecarbonyl)-pyrrolidin-3-yl]-methyl-carbamic acid 4-fluoro-phenyl ester] | 3.4 nM
6 | – | CN(C(=O)Oc1ccc(F)cc1)[C@H]1CN(C(=O)N2CCOCC2)C[C@@H]1c1ccc(Cl)c(Cl)c1 (racemic) [Example 48, rac-[(3R,4S)-4-(3,4-Dichloro-phenyl)-1-(morpholine-4-carbonyl)-pyrrolidin-3-yl]-methyl-carbamic acid 4-fluoro-phenyl ester] | 29.4 nM
7 | – | CO[C@H]1CC[C@@H](C(=O)N2C[C@H](c3ccc(Cl)c(Cl)c3)[C@@H](N(C)C(=O)Oc3ccc(F)cc3)C2)CC1 (racemic) [Example 49, rac-[(3R,4S)-4-(3,4-Dichloro-phenyl)-1-(cis-4-methoxy-cyclohexanecarbonyl)-pyrrolidin-3-yl]-methyl-carbamic acid 4-fluoro-phenyl ester] | 3.5 nM
8 | – | CN(C(=O)Oc1ccc(F)cc1)[C@H]1CN(C(=O)[C@H]2CC[C@](C)(O)CC2)C[C@@H]1c1ccc(Cl)c(Cl)c1 (racemic) [Example 52, rac-[(3R,4S)-4-(3,4-Dichloro-phenyl)-1-(trans-4-hydroxy-4-methyl-cyclohexanecarbonyl)-pyrrolidin-3-yl]-methyl-carbamic acid 4-fluoro-phenyl ester] | 8.1 nM
9 | – | CN(C(=O)Oc1ccc(F)cc1)[C@H]1CN(C(=O)[C@H]2CC[C@@](C)(O)CC2)C[C@@H]1c1ccc(Cl)c(Cl)c1 (racemic) [Example 53, rac-[(3R,4S)-4-(3,4-Dichloro-phenyl)-1-(cis-4-hydroxy-4-methyl-cyclohexanecarbonyl)-pyrrolidin-3-yl]-methyl-carbamic acid 4-fluoro-phenyl ester] | 4.7 nM
10 | – | CN(C(=O)Oc1ccc(F)cc1)[C@H]1CN(C(=O)CCC(N)=O)C[C@@H]1c1ccc(Cl)c(Cl)c1 (racemic) [Example 55, rac-[(3R,4S)-1-(3-Carbamoyl-propionyl)-4-(3,4-dichloro-phenyl)-pyrrolidin-3-yl]-methyl-carbamic acid 4-fluoro-phenyl ester] | 86.1 nM
11 | – | CN(C(=O)Oc1ccc(F)cc1)[C@H]1CN(C(=O)CCN2CCCC2=O)C[C@@H]1c1ccc(Cl)c(Cl)c1 (racemic) [Example 56, rac-{(3R,4S)-4-(3,4-Dichloro-phenyl)-1-[3-(2-oxo-pyrrolidin-1-yl)-propionyl]-pyrrolidin-3-yl}-methyl-carbamic acid 4-fluoro-phenyl ester] | 61.3 nM
12 | – | CN(C(=O)O[C@H]1CC[C@H](C)CC1)[C@H]1CN(C(=O)C2CCN(C(=O)C3(C)CC3)CC2)C[C@@H]1c1ccc(Cl)cc1 (racemic) [Example 57, rac-{(3R,4S)-4-(4-Chloro-phenyl)-1-[1-(1-methyl-cyclopropanecarbonyl)-piperidine-4-carbonyl]-pyrrolidin-3-yl}-methyl-carbamic acid 4-methyl-cyclohexyl ester] | 7.6 nM
13 | – | CC(=O)N1CCC(C(=O)N2C[C@H](c3ccc(Cl)c(Cl)c3)[C@@H](N(C)C(=O)Oc3ccc(F)cc3)C2)CC1 (racemic) [Example 65, rac-[(3R,4S)-1-(1-Acetyl-piperidine-4-carbonyl)-4-(3,4-dichloro-phenyl)-pyrrolidin-3-yl]-methyl-carbamic acid 4-fluoro-phenyl ester] | 0.7 nM
14 | – | CN(C(=O)Oc1ccc(F)cc1)[C@H]1CN(C(=O)C2CCN(C(=O)OC(C)(C)C)CC2)C[C@@H]1c1ccc(Cl)c(Cl)c1 (racemic) [Example 66, rac-4-{(3S,4R)-3-(3,4-Dichloro-phenyl)-4-[(4-fluoro-phenoxycarbonyl)-methyl-amino]-pyrrolidine-1-carbonyl}-piperidine-1-carboxylic acid tert-butyl ester] | 0.8 nM
15 | 0.4 nM | CN(C(=O)OCCCC(F)(F)F)[C@H]1CN(C(=O)C2CCN(C(=O)C3(C)CC3)CC2)C[C@@H]1c1ccc(Cl)c(Cl)c1 (racemic) [Example 67, rac-{(3R,4S)-4-(3,4-Dichloro-phenyl)-1-[1-(1-methyl-cyclopropanecarbonyl)-piperidine-4-carbonyl]-pyrrolidin-3-yl}-methyl-carbamic acid 4,4,4-trifluoro-butyl ester] | –
16 | – | Cc1ccc([C@H]2CN(C(=O)C3CCN(C(=O)C4(C)CC4)CC3)C[C@@H]2N(C)C(=O)Oc2ccc(F)cc2)cc1Cl (racemic) [Example 70, rac-{(3R,4S)-4-(3-Chloro-4-methyl-phenyl)-1-[1-(1-methyl-cyclopropanecarbonyl)-piperidine-4-carbonyl]-pyrrolidin-3-yl}-methyl-carbamic acid 4-fluoro-phenyl ester] | 1.3 nM
17 | – | Cc1cc([C@H]2CN(C(=O)C3CCN(C(=O)C4(C)CC4)CC3)C[C@@H]2N(C)C(=O)Oc2ccc(F)cc2)ccc1Cl (racemic) [Example 71, rac-{(3R,4S)-4-(4-Chloro-3-methyl-phenyl)-1-[1-(1-methyl-cyclopropanecarbonyl)-piperidine-4-carbonyl]-pyrrolidin-3-yl}-methyl-carbamic acid 4-fluoro-phenyl ester] | 1.8 nM
18 | – | CN(C(=O)Oc1ccc(F)cc1)[C@H]1CN(C(=O)C2CCNCC2)C[C@@H]1c1ccc(Cl)c(Cl)c1 (racemic) [Example 72, rac-[(3R,4S)-4-(3,4-Dichloro-phenyl)-1-(piperidine-4-carbonyl)-pyrrolidin-3-yl]-methyl-carbamic acid 4-fluoro-phenyl ester] | 21.2 nM
19 | – | CCC(=O)N1CCC(C(=O)N2C[C@H](c3ccc(Cl)c(Cl)c3)[C@@H](N(C)C(=O)Oc3ccc(F)cc3)C2)CC1 (racemic) [Example 73, rac-[(3R,4S)-4-(3,4-Dichloro-phenyl)-1-(1-propionyl-piperidine-4-carbonyl)-pyrrolidin-3-yl]-methyl-carbamic acid 4-fluoro-phenyl ester] | 0.8 nM
20 | – | CN(C(=O)Oc1ccc(F)cc1)[C@H]1CN(C(=O)C2CCN(C(=O)C3CC3)CC2)C[C@@H]1c1ccc(Cl)c(Cl)c1 (racemic) [Example 74, rac-[(3R,4S)-1-(1-Cyclopropanecarbonyl-piperidine-4-carbonyl)-4-(3,4-dichloro-phenyl)-pyrrolidin-3-yl]-methyl-carbamic acid 4-fluoro-phenyl ester] | 0.8 nM
21 | – | COCC(=O)N1CCC(C(=O)N2C[C@H](c3ccc(Cl)c(Cl)c3)[C@@H](N(C)C(=O)Oc3ccc(F)cc3)C2)CC1 (racemic) [Example 75, rac-{(3R,4S)-4-(3,4-Dichloro-phenyl)-1-[1-(2-methoxy-acetyl)-piperidine-4-carbonyl]-pyrrolidin-3-yl}-methyl-carbamic acid 4-fluoro-phenyl ester] | 0.6 nM
22 | – | CN(C(=O)Oc1ccc(F)cc1)[C@H]1CN(C(=O)C2CCN(C(=O)C3CCOCC3)CC2)C[C@@H]1c1ccc(Cl)c(Cl)c1 (racemic) [Example 76, rac-{(3R,4S)-4-(3,4-Dichloro-phenyl)-1-[1-(tetrahydro-pyran-4-carbonyl)-piperidine-4-carbonyl]-pyrrolidin-3-yl}-methyl-carbamic acid 4-fluoro-phenyl ester] | 0.7 nM
23 | – | CN(C(=O)Oc1ccc(F)cc1)[C@H]1CN(C(=O)C2CCN(C3CCOCC3)CC2)C[C@@H]1c1ccc(Cl)c(Cl)c1 (racemic) [Example 77, rac-{(3R,4S)-4-(3,4-Dichloro-phenyl)-1-[1-(tetrahydro-pyran-4-yl)-piperidine-4-carbonyl]-pyrrolidin-3-yl}-methyl-carbamic acid 4-fluoro-phenyl ester] | 1.5 nM
24 | – | CN(C(=O)Oc1ccc(F)cc1)[C@H]1CN(C(=O)C2CCN(c3nncs3)CC2)C[C@@H]1c1ccc(Cl)c(Cl)c1 (racemic) [Example 78, rac-[(3R,4S)-4-(3,4-Dichloro-phenyl)-1-(1-[1,3,4]thiadiazol-2-yl-piperidine-4-carbonyl)-pyrrolidin-3-yl]-methyl-carbamic acid 4-fluoro-phenyl ester] | 1.5 nM
